# Measurements as given in article PMC11714206, “Massively Parallel Screening of Toll/Interleukin‐1 Receptor (TIR)‐Derived Peptides Reveals Multiple Toll‐Like Receptors (TLRs)‐Targeting Immunomodulatory Peptides” (Advanced Science, 2024).
# Biological target: T1, MAL^TIR (Homo sapiens, UniProt P58753)
# T1 construct: MAL (residues 79–221); 6xHis; made in house; host or cells: E. coli BL21 (DE3)
# Experiment: T‐Surf phage library (P8 and P3) selection against MAL^TIR, four rounds, NGS read counts
# Assay type: binding
# Settings: for P3_MAL Rank (after) / P3_MAL Rank (before): P3 library; for P8_MAL Rank (after) / P8_MAL Rank (before): P8 library; for Population: 4th round of selection against MAL TIR, share of NGS reads
# Method: T‐Surf libraries were screened against the immobilized TIR domains of two major human TLR adaptor proteins, MAL^TIR and MyD88^TIR, allowing cross‐species selection of TIR‐binding motifs with 190 946 TIR‐derived peptides in a single binding assay (Scheme 1). Enriched phage pools from the fourth round of selection were analyzed using NGS after barcoding the peptide‐coding regions of the phage pools.
# Phage display screening was performed by coating two wells of a 96‐well plate (Maxisorp, Thermo Fisher Scientific) with 100 µL of 5 µg mL^−1 TIR domains overnight; then, the coated wells were blocked with 200 µL of blocking buffer (0.2% BSA in PBS) and set aside for 1 h at 4 °C with gentle shaking. Next, 100 µL of the phage library was added to the wells and incubated for 1 h at room temperature (RT; 20 – 22 °C) with gentle shaking. The plate was washed four times with PBS containing 0.5% Tween‐20; the bound phages were eluted by adding 100 µL of 100 mM HCl to each well. The elute was neutralized with 10 µL of 1.0 M Tris‐HCl (pH 11.0). E. coli TG1 cells were grown to the log phase (A600 = ≈0.6), and 1 mL of the culture was incubated with 100 µL of the eluted phages for 30 min at 37 °C, with shaking at 200 rpm. Next, 1 µL of M13KO7 helper phages was added, followed by incubation for 45 min at 37 °C, with shaking. Subsequently, the cells were transferred to 25 mL of 2× yeast extract tryptone/carbenicillin/kanamycin medium and incubated overnight at 37 °C with shaking at 200 rpm. The amplified phages were precipitated with 20% PEG‐8000/2.5 M NaCl to be used for the next round of selection.
# The naïve T‐Surf libraries in P8 and P3 and the enriched phage pools after four rounds were barcoded for NGS as previously described.^[ [59] ^] Briefly, 5 µL of the phage pool was used as a template for 20 cycles of a 50 µL PCR reaction using […] each of forward and reverse barcoded primers and PrimeSTAR Max DNA Polymerase. The PCR products were purified using Expin Gel SV (GeneAll). The NGS samples were quantified using qPCR, following the qPCR Quantification Protocol Guide (KAPA Library Quantification kits for Illumina Sequencing Platform), and qualified using the TapeStation High Sensitivity D1000 ScreenTape (Agilent Technologies). The indexed libraries were further sequenced by Macrogen (Seoul, Republic of Korea) using the NovaSeq platform (Illumina) with 100 bp paired‐end reads. The reads were demultiplexed by barcodes and filtered for an average Phred quality score of at least 30, followed by trimming the flanking consensus sequences using Cutadapt (version 2.3). Peptide sequence populations were analyzed according to the read counts.
# [1] = 4R selection against MAL, rank after grouping
# [2] = 4R selection against MAL, rank before grouping
# [3] = selection against MAL, rank after grouping
# [4] = selection against MAL, rank before grouping
# [5] = P8_MAL pool: P8 T-Surf phage library
# [6] = selection against MAL, rank by count after grouping
# [7] = selection against MAL, rank by count before grouping
# [8] = selection against MAL TIR, rank by count after grouping
# [9] = selection against MAL TIR, rank by count before grouping
# [10] = P8_MAL: rank by count after grouping
# [11] = P8_MAL: rank by count before grouping
# [12] = P3_MAL pool: P3 T-Surf phage library
# [13] = P3_MAL: rank by count after grouping
# [14] = P3_MAL: rank by count before grouping
# T1 sequence (P58753 79-221): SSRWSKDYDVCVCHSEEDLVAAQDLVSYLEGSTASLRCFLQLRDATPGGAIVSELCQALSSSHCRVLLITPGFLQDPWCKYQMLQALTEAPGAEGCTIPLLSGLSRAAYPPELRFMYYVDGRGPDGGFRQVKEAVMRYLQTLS
sequence,measurement,setting,value
KWFWEKLRYALTYRPAT,P3_MAL Rank (after),[1],602
same,P3_MAL Rank (before),[2],3516
WFYNHLVSLFLRDTKV,P8_MAL Rank (after),[3],520
same,P8_MAL Rank (before),[4],1306
WFYERLVSLILRDTKM,Population,[5],0.00402%
VEPTQVRKQRCGGKC,P3_MAL Rank (after),[6],760
same,P3_MAL Rank (before),[7],1661
TFLRHLYNALVQAGLH,P8_MAL Rank (after),[8],245
same,P8_MAL Rank (before),[9],2627
SNLRPKVMNYLMRTKT,P3_MAL Rank (after),[6],756
same,P3_MAL Rank (before),[7],1328
MERVKAFHQRLKTALGH,P3_MAL Rank (after),[1],587
same,P3_MAL Rank (before),[2],2929
AFFWAHLKSVLGKPTM,P8_MAL Rank (after),[8],233
same,P8_MAL Rank (before),[9],1601
YAFTGHLHRYLVQRGVHGGD,P3_MAL Rank (after),[3],560
same,P3_MAL Rank (before),[4],1396
WSYERLVSLILRDTKV,Population,[5],0.0034%
AVLYTFLINLTHPTKF,Rank (after),[10],460
same,Rank (before),[11],1954
SEFIQKMILWMNTKVV,P8_MAL Rank (after),[6],689
same,P8_MAL Rank (before),[7],2438
WFYERLVSLILRHTKL,Rank (after),[10],187
same,Rank (before),[11],1155
PNLRTKVLSYLMRTTT,P3_MAL Rank (after),[8],270
same,P3_MAL Rank (before),[9],2674
VGWFLHTLCQLILQKG,P3_MAL Rank (after),[1],632
same,P3_MAL Rank (before),[2],1630
ASLYTFLINLTHPTNF,Population,[5],0.0034%
AFFWEQLRTVLDHVNDV,Rank (after),[10],141
same,Rank (before),[11],836
CVYRPSASLSGAAWR,P3_MAL Rank (after),[3],568
same,P3_MAL Rank (before),[4],1321
WFYDRIVSLNGRDKQV,P8_MAL Rank (after),[6],711
same,P8_MAL Rank (before),[7],1142
RNFVADLFPALPNKGI,P8_MAL Rank (after),[3],566
same,P8_MAL Rank (before),[4],2232
YAFTGHLHRYLVQRGI,Population,[12],0.00338%
LVAHEISKKMKIFCDH,P3_MAL Rank (after),[3],490
same,P3_MAL Rank (before),[4],2102
AFFWEQLRTALGNPTM,P8_MAL Rank (after),[6],704
same,P8_MAL Rank (before),[7],1698
SSFREGLWRLLGLIKK,P3_MAL Rank (after),[6],680
same,P3_MAL Rank (before),[7],3140
KHSNNDQKWAETASRK,P3_MAL Rank (after),[6],765
same,P3_MAL Rank (before),[7],3469
DTRYTFIAHLSHALNL,P8_MAL Rank (after),[1],651
same,P8_MAL Rank (before),[2],2040
RNFVAYLFQALANKSI,Population,[5],0.00309%
PNLRTTLMTSPMRTKT,P3_MAL Rank (after),[1],656
same,P3_MAL Rank (before),[2],2673
TFLGHLHNALVQAGNH,Rank (after),[10],432
same,Rank (before),[11],2608
LFFWESLKQPLRSEGR,P8_MAL Rank (after),[1],608
same,P8_MAL Rank (before),[2],2112
RNFVADLYQALANKGI,Rank (after),[10],131
same,Rank (before),[11],2186
RLQEWRETLCQGHSRV,P3_MAL Rank (after),[1],650
same,P3_MAL Rank (before),[2],2550
RGFLSHLRNHLQAKDP,P3_MAL Rank (after),[8],210
same,P3_MAL Rank (before),[9],2408
AFFWEQLRTVLGKPR,Rank (after),[10],130
same,Rank (before),[11],835
HFFWIQLKNILGENSF,P8_MAL Rank (after),[1],610
same,P8_MAL Rank (before),[2],2417
WFLEQLEKILEAHGTT,P8_MAL Rank (after),[6],715
same,P8_MAL Rank (before),[7],1353
LSVESWRQALEKAGQL,Rank (after),[13],392
same,Rank (before),[14],2181
PNLRTTVPTYLMRTKT,P3_MAL Rank (after),[6],726
same,P3_MAL Rank (before),[7],2689
AFFCAHLRTVLGKPTM,P8_MAL Rank (after),[8],267
same,P8_MAL Rank (before),[9],1586
QLIQHWIELHQHQLHL,P8_MAL Rank (after),[1],630
same,P8_MAL Rank (before),[2],2348
PNLRTKGLNYLMRTKT,Population,[12],0.00338%
RHFAGLLYDRLTKTGV,Rank (after),[13],414
same,Rank (before),[14],2563
TFLGHLYIALVQTGIH,P8_MAL Rank (after),[8],261
same,P8_MAL Rank (before),[9],2558
YNFISHLHRYLVQRGV,P3_MAL Rank (after),[3],562
same,P3_MAL Rank (before),[4],1581
RLLNWKEARHQFHSWV,P3_MAL Rank (after),[8],243
same,P3_MAL Rank (before),[9],2479
SSFREGLLRLLELRKK,P3_MAL Rank (after),[8],265
same,P3_MAL Rank (before),[9],3138
AFFWAKLKRVLGNPTL,P8_MAL Rank (after),[3],525
same,P8_MAL Rank (before),[4],1652
